Literature values as cited in patent US8062870B2, “Enantiomerically resolving acyloxyalkyl thiocarbonates used in synthesizing acyloxyalkyl carbamate prodrugs” (XenoPort, Inc., priority 2008, dated 2011).

Settings: dosed either orally or directly into the colon of a mammal

Row | Compound | bioavailability as pregabalin
1 | CC(C)C[C@H](CNC(=O)OC(OC(=O)C(C)C)C(C)C)CC(=O)O (some centres unmarked) | high bioavailability
2 | CC(C)C[C@H](CNC(=O)OC(C)OC(=O)c1ccccc1)CC(=O)O (some centres unmarked) | high bioavailability
